Test results reported in paper PMC9886550, “Molecular mechanism of topoisomerase poisoning by the peptide antibiotic albicidin” (Nature Catalysis, 2023).

Legend:
E. coli gyrase = target: T1, E. coli gyrase (Escherichia coli, UniProt P0AES4+P0AES6); assay: Gyrase cleavage of linear DNA fragments (Mu217 and others); format: biochemical; conditions: 1 µM albicidin
T1 construct: alternative cryo-EM approach involving full-length E. coli gyrase; 10-His (cleaved yes); Twin-Strep (cleaved yes); made in house
T1 sequence (P0AES4 whole entry, the tested form may be a part, one chain of several): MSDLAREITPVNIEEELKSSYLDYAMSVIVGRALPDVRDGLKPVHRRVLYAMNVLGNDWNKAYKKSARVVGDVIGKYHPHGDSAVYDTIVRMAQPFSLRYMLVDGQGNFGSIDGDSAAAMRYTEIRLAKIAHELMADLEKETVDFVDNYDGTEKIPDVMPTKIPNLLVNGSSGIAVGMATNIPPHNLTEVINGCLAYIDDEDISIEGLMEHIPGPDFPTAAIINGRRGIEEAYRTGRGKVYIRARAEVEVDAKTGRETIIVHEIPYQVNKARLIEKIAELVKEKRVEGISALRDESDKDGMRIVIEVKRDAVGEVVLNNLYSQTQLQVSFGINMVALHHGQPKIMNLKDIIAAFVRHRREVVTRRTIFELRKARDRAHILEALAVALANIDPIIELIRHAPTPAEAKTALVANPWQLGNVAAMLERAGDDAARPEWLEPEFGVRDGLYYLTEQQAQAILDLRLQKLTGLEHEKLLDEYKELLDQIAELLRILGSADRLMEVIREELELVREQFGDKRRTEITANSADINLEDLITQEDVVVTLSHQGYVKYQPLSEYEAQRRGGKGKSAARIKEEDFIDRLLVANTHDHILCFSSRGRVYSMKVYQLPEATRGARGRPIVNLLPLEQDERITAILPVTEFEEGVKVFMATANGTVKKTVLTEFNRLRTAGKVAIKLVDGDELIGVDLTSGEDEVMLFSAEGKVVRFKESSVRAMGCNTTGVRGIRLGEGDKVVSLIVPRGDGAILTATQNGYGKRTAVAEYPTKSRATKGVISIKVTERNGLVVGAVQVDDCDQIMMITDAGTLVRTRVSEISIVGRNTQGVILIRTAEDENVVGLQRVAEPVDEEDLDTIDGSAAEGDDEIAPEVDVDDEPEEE
Method: Mu217 DNA (25 nM) was incubated with 0.4 µM gyrase and indicated concentrations (1 or 10 µM) of diazirine-labelled albicidin (photo-Albi, φAlbi) in a volume of 20 µl (~70 ng DNA) at 37 °C for 30 min in gyrase cleavage buffer (see section 'Topoisomerase assays'). For CFX competition experiments, 30 µM CFX was added first, followed by the albicidin. Reactions were either irradiated with ultraviolet 365 nm (benchtop transilluminator) with cooling (ice) for 30 min or left on ice for 30 min (‘dark’). Then, 0.2% SDS and 0.2 mg ml^−1 proteinase K were added to both samples, which were incubated for another 30 min. Reactions were mixed with loading dye (STEB) and chloroform:isoamyl alcohol (24:1 v/v) before vortexing and centrifugation. The aqueous phase was loaded on 4–20% TBE (Tris–borate–EDTA) polyacrylamide gel (Thermo) and ran for 1 h at 150 V. DNA was visualized with SYBR Gold (Thermo) staining.
Extended Data Fig. 1 Length dependency of albicidin-mediated DNA cleavage. Position of cleaved DNA indicated by arrows and red dots. ATP and ADPNP were added as indicated, (----) stands for no nucleotide added. 20 nM gyrase, 1 µM albicidin and 25 nM DNA was used in each reaction.
Extended Data Fig. 5 Photocrosslinking of diazirine-labelled albicidin (photo-Albi) to the DNA. a. Structures of N-terminal photo-Albi and control compound. b. DNA cleavage assay with Mu217 fragment and indicated concentrations of compounds. The labelled DNA band appearing upon irradiation of a photo-compound when bound to the complex is marked by a yellow star. c. Ciprofloxacin competition experiment. Pre-incubation with excess CFX prevents albicidin binding and crosslinking. Details of the experiment are available in Methods section.

[1] = format: physicochemical; conditions: 100 µM in Topo IV assays
Method: Supplementary Figure 11. Activity of albicidin and Albi-1/2/3 on E. coli topoisomerase IV. a. Plasmid relaxation activity of E. coli topo IV in the presence of albicidin, Albi-1, Albi-2 and Albi-3. First lane: negatively supercoiled pBR322; second lane: innate relaxation activity of E. coli topo IV (12.5 nM); third lane: effect of 20 µM CFX; subsequent lanes: effect of increasing compound concentration (0.1, 1, 10, 100 […]
higher concentration. b. Cleavage activity of E. coli topo IV in the presence of albicidin, Albi-1, Albi-2 and Albi-3. First lane: negatively supercoiled pBR322; second lane: innate cleavage activity of E. coli topo IV (15 nM); third lane: effect of 20 µM CFX; subsequent lanes: effect of increasing compound concentration (0.1, 1, 10, 100 µM). […]
concentration. All experiments were carried out in triplicates and representative gels […]
(1 picture or pasted object on this page, not shown here)

DNA gyrase = DNA gyrase supercoiling inhibition assay (initial IC50 determination); format: biochemical, E. coli; conditions: vs Albi-3
Method: For initial compound IC50 determination, DNA supercoiling experiments with DNA gyrase were performed in a total volume of 30 μl of gyrase buffer (Inspiralis). The reactions contained 500 ng relaxed pBR322 plasmid DNA, 1.5 U DNA gyrase (6 U μl^−1) and albicidin derivatives at a final concentration of between 2.5 and 320 nM. The final DMSO concentration used was 3%. Samples were incubated at 37 °C for 30 min and subsequently loaded on an agarose gel. Electrophoretic analysis was performed using a 1% agarose gel (100 V, 90 min). DNA bands were stained with ethidium bromide and subsequently quantified using ImageJ 1.53k software.
Extended Data Fig. 8 Inhibition of supercoiling by Albi-1/2/3. a. Chemical structures of Albi-1, Albi-2 and Albi-3. b. Example supercoiling inhibition assay gels: Albi-1, decreasing concentrations (320, 160, 80, 40, 20, 10, 5, 2.5 nM); Albi-2 (320, 160, 80, 40, 20 nM); Albi-3 (960, 800, 640, 480, 320, 160, 80, 40 nM). First lane - relaxed pBR322; second lane - DNA gyrase. 40 nM albicidin was used as positive control (third lane). Different concentrations were tested and representative gels are shown.

COc1c(NC(=O)c2ccc(NC(=O)c3ccc(NC(=O)[C@H](CC#N)NC(=O)c4ccc(NC(=O)/C(C)=C/c5ccc(O)cc5)cc4)cc3)c(OC)c2O)ccc(C(=O)O)c1O [Albicidin]
cleavage of DNA fragments (E. coli gyrase; fragments shorter than 150 bp or absence of a nucleotide): almost no cleavage | cleavage of the 217 bp Mu SGS fragment (Mu217) (E. coli gyrase; in the presence of ATP or ADPNP): strong cleavage

COc1c(NC(=O)c2ccc(NC(=O)c3ccc(NC(=O)[C@H](Cc4c[nH]nn4)NC(=O)c4ccc(NC(=O)c5ccc6nc(C)ccc6c5)cc4)cn3)c(OC)c2O)ccc(C(=O)O)c1O [Albi-3]
solubility in assay [1]: solubility issues

COc1c(NC(=O)c2ccc(NC(=O)c3ccc(NC(=O)[C@H](Cc4c[nH]nn4)NC(=O)c4ccc(NC(=O)c5ccc6cc(O)ccc6c5)cc4)cn3)c(OCCN)c2O)ccc(C(=O)O)c1O [Albi-2]
better activity in the gyrase inhibition assay than Albi-3 (DNA gyrase): ~ 4 fold
